Assay results taken from publication PMC1968247 (British Journal of Cancer, 1993).
Like-named read-outs stand apart in the source and are kept apart here.

Columns and labels:
[1] = system: MAC 26 tumours; details: for Tumour growth delay: MAC 26; for Survivors: MAC 26 bearers
Description: (§1) Br. J. Cancer (1993), 67, 441 446 t? […] Bibby Clinical Oncology Unit, University of Bradford, West Yorkshire, BD7 JDP, UK. […] In vivo anti-tumour activity was examined against three transplantable adenocarcinomas of the mouse colon and in vivo bone marrow toxicity was assessed using a spleen colony forming unit assay. The pharmacokinetic behaviour of the drug in vivo and drug stability in vitro was analysed by gas chromatography with electron capture detection. […] Clinical responses to cytotoxic agents have been largely restricted to the haematological malignancies while the majority of human solid tumours have remained refractory to chemotherapy (Marsoni et al., 1987). […] However, their clinical usefulness has been limited by non-selective host toxicity, particularly myelosuppres- sion. The chloroethylnitrosoureas decompose spontaneously in aqueous solution to generate reactive intermediates that are capable of alkylating and carbamoylating nucleophilic targets (Cheng et al., 1972). Alkylation reactions consist of chloroethylations and hydroxyethylations of DNA (Tong et al., 1982). Chloroethylation of 06-guanine with subsequent cross-link formation is considered to be the most important cytotoxic reaction (Lown et al., 1978) while hydroxyethyla- tion reactions are thought to be responsible for their mutagenic and carcinogenic effects (Pelfrene et al., 1976; Swenson et al., 1979). […] In the search for other types of compound that would chloroethylate DNA, a series of 2-haloethylsulphonates was synthesised (Shealy et al., 1983). […] Recently, the NCI has introduced a new disease-orientated screening programme based on the assessment of the in vitro cytotoxicity of a panel of cell lines representing the common clinical forms of human cancers using a colorimetric assay (Boyd, 1989). […] One reason for this discrepancy is that the in vitro tests ignore the potential role played by the pharmacokinetic behaviour and bioavailability of a drug in determining tumour responses in vivo. […] It has been used extensively as part of the pre-clinical evaluation of new anti-cancer agents within the Screening and Pharmacology Group of the EORTC (Bibby et al., 1988b). The feasibility of performing minimal toxicity studies in conjunction with anti-tumour studies has been described (Bibby et al., 1988b). […] Correspondence: A.M. Matthew. Received 6 December 1991; and in revised form 13 October 1992. Br. J. Cancer (1993), 67, 441-446 '?" Macmillan Press Ltd., 1993 442 A.M. MATIHEW et al. ethylating agents with improved therapeutic indices. The assessment of stem cell survival has been recommended to study irreversible cytotoxic bone marrow injury (Schofield, 1986) and this can be performed readily in mice using a spleen colony forming unit assay. […] In vitro activity was assessed against a panel of established murine and human tumour cell lines while in vivo anti-tumour responses were evaluated against an ascitic tumour, MAC 15A, and two solid subcutaneous (sc) tumours, MAC 13 and MAC 26. MAC 13 is relatively nitrosourea-sensitive due to a low level of the repair enzyme 06-alkylguanine-DNA alkyltransferase while MAC 26 is relatively nitrosourea-resistant due to a high repair enzyme level (Lunn et al., 1989). In vivo bone marrow toxicity and pharmacokinetic studies and in vitro drug stability studies were performed in conjunction with the anti-tumour studies. […] Chlorozotocin was dissolved in 10% dimethylsulphoxide (DMSO)/arachis oil. Drug solutions were prepared at an appropriate concentration for the desired in vivo dose to be administered in 0.1 ml per 10 g body weight by intra- peritoneal (ip) or intravenous (iv) injection and for the desired final concentration in vitro to be achieved upon a 1 in 10 dilution. […] Chemosensitivity testing In vitro chemosensitivity was assessed using a modified micro-tetrazolium (MTT) assay (Twenty- man & Luscombe, 1987).

[2] = system: bone marrow; details: 24 h
Description: as §1

[3] = system: MAC 13 tumours; test: Anti-tumour activity against MAC 13 (tumour weight); assay type: in vivo, NMRI mice; details: 60 mg kg-1 ip
Description: as §1

[4] = system: MAC 15A ascites tumour; test: Anti-tumour activity against MAC 15A (median survival time); assay type: in vivo, NMRI mice; details: 60 mg kg-1 ip
Description: as §1

[5] = Maximum tolerated dose, full dose range to the point of toxicity; details: NMRI, mouse, in vivo, ip
Description: Br. J. Cancer (1993), 67, 441 446 t? […] Bibby Clinical Oncology Unit, University of Bradford, West Yorkshire, BD7 JDP, UK. […] In vivo anti-tumour activity was examined against three transplantable adenocarcinomas of the mouse colon and in vivo bone marrow toxicity was assessed using a spleen colony forming unit assay. The pharmacokinetic behaviour of the drug in vivo and drug stability in vitro was analysed by gas chromatography with electron capture detection. […] Clinical responses to cytotoxic agents have been largely restricted to the haematological malignancies while the majority of human solid tumours have remained refractory to chemotherapy (Marsoni et al., 1987). […] However, their clinical usefulness has been limited by non-selective host toxicity, particularly myelosuppres- sion. The chloroethylnitrosoureas decompose spontaneously in aqueous solution to generate reactive intermediates that are capable of alkylating and carbamoylating nucleophilic targets (Cheng et al., 1972). Alkylation reactions consist of chloroethylations and hydroxyethylations of DNA (Tong et al., 1982). Chloroethylation of 06-guanine with subsequent cross-link formation is considered to be the most important cytotoxic reaction (Lown et al., 1978) while hydroxyethyla- tion reactions are thought to be responsible for their mutagenic and carcinogenic effects (Pelfrene et al., 1976; Swenson et al., 1979). […] The assessment of stem cell survival has been recommended to study irreversible cytotoxic bone marrow injury (Schofield, 1986) and this can be performed readily in mice using a spleen colony forming unit assay. […] In vitro activity was assessed against a panel of established murine and human tumour cell lines while in vivo anti-tumour responses were evaluated against an ascitic tumour, MAC 15A, and two solid subcutaneous (sc) tumours, MAC 13 and MAC 26. […] Chemosensitivity testing In vitro chemosensitivity was assessed using a modified micro-tetrazolium (MTT) assay (Twenty- man & Luscombe, 1987).

## O=NN(CCCl)C(=O)N[C@H]1C(O)O[C@H](CO)[C@@H](O)[C@@H]1O (stereo partly drawn) [Chlorozotocin, reference compound]
[1]; 60 mg kg-1 ip
  Tumour growth delay: 0 days
  Survivors: 9/9
[1]; 80 mg kg-1 ip
  Tumour growth delay: Toxic
  Survivors: 3/9
[2]; 15 mg kg-1 ip
  Survival fraction: 0.86
[2]; 30 mg kg-1 ip
  Survival fraction: 0.80
[3]
  % Tumour weight inhibition: 59.2%
[4]
  T/C%: 288%
[5]
  MTD: 60 mg/kg
